Results as given in patent US11000501B2, “Composition for preventing or treating neurological and mental disorders, containing syringaresinol” (SEOUL NATIONAL UNIVERSITY R&DB FOUNDATION, priority 2016, dated 2021).

Tests used:
Assay type in all cases: cell-based, mouse
[1] = system: CA1 neurons (inhibitory synaptic transmission); test: Evoked IPSC (eIPSC) recording in CA1 neurons; details: 100 μM
Description: A stimulating electrode was placed on a radiating layer or a pyramidal cell layer near the target cell. […] […] During eEPSC or eIPSC recording, series resistance and seal resistance were continuously observed using short hyperpolarization pulses (−5 mV, 50 ms). When the resistance was changed by more than 20% during recording, the data was discarded.
SYR […] inhibitory synaptic transmission in CA1 neurons. […] There was no difference between the first eIPSC (t=−0.47, p>0.05) and the second eIPSC (t=−0.33, p>0.05) as measured before and after the application of SYR respectively.

[2] = system: NMDAR-EPSC in CA1 neurons; test: NMDAR-mediated EPSC recording in CA1 neurons; details: −40 mV; NBQX and picrotoxin present; 100-ms interval
Experimental: To measure evoked excitatory post-synaptic current (eEPSC), the synapse potential was recorded using a patch pipette (3 to 4Mohm) via the membrane voltage clamp technique. The patch pipette contained a solution containing 100 mM CsMeSO4, 10 mM TEA-Cl, 20 mM CsCl, 8 mM NaCl, 10 mM HEPES, 0.5 mM QX-314-Cl, 4 mM Mg-ATP, 0.3 mM Na-GTP and 10 mM EGTA and having pH 7.25 and 290 mOsm/kg. EPSC was measured at a frequency of 0.05 Hz. The synaptic current was induced using a glass pipette (0.3 to 0.5 Mohm). GABAA receptor (GABAAR) antagonist picrotoxin (50 μM) was added to ACSF.

[3] = system: SC-CA1 synapse synaptic vesicle pool; test: Readily releasable pool (RRP) size by cumulative amplitude analysis, 20 Hz train; details: 100 μM; 80 stimuli at 20 Hz
Experimental: Previous studies have shown that the secretion probability is regulated by the size of the readily releasable pool (RRP) of hippocampal neurons. Therefore, RRP was measured before and after treatment with SYR (100 μM). A high-frequency train (20 Hz) composed of more than 60 stimuli was prepared. 80 stimuli at 20 Hz was applied to completely remove RRP from the SC-CA1 synapse. RRP size was measured by cumulative amplitude analysis (Stevens and Williams, 2007; Wesseling and Lo, 2002). In the presence of AP-5 and picrotoxin, SYR inhibited AMPAR-EPSC (FIG. 5A and FIG. 5B). […] An extent by which RRP size is reduced was very close to an extent by which synapse is inhibited (FIG. 5B and FIG. 5F). […] This means that a decrease in RRP size may lead to the SYR-induced synapse decrease.

ERK = test: Western blot of ERK activity (p-ERK/ERK) in hippocampal slices; details: 100, 300 and 500 μM, 10 minutes treatment
Experimental: After removing the CA3 region from the hippocampal slice surgically, the slices were recovered in the 36° C. and normal ACSF for 4 hours. Each sample was treated with each drug for 10 minutes, and then frozen using liquefied nitrogen. Western blot analysis of drug-induced changes in ERK activity in the hippocampal slices was performed in a manner as previously described (Song et al., 2017). The slices were homogenized using a probe sonicator in a cold lysis buffer about at a temperature of ice. The lysis buffer contained 50 mM HEPES, 100 mM NaCl, 5 mM EGTA, 5 mM EDTA, 1% Triton X-100, a phosphatase inhibitor mixer (GenDEPOT, TX, USA) and a protease inhibitor mixer (Sigma-Aldrich, MO, USA). The total protein concentration of the homogenate was determined by Bradford protein assay (Bio-Rad, CA, USA). Samples containing 10 to 12 μg of protein were separated using SDS-PAGE gels and transferred to the nitrocellulose membrane. The membrane was sequentially reacted with a primary antibody (p-ERK and ERK; Cell Signaling Technologies, MA, USA) and a secondary antibody (Jackson ImmunoResearch, USA) having horse radish peroxidase (HRP) coupled thereto. HRP signals were detected on an enhanced chemiluminescence (ECL) substrate (GE Healthcare, UK) and then quantified with MetaMorph software (Molecular Devices, CA, USA). […]

COc1cc(C2OCC3C(c4cc(OC)c(O)c(OC)c4)OCC23)cc(OC)c1O (centres unmarked) [SYR, syringaresinol]
ratio of IPSC amplitude induced by paired-pulse stimulation (PPR) ([1]; 100 ms interval): did not change | eIPSC amplitude (first and second) ([1]; in presence of NBQX and AP-5): had no effect on eIPSC | NMDAR-EPSC induced by paired-pulse stimulation [2]: significantly inhibited | RRP size [3]: significant decrease | ERK activity (ERK): did not affect ERK activity
